Source: patent US20040138193A1, “Oestrogen fatty acid monoester as a hypolipidaemic and antidiabetic agent” (priority 2001, published 2004)

Key:
Wistar female rats = test: Dose dependence of plasma parameters after 10 days of daily oral gavage in normal Wistar female rats; format: in vivo, rat; conditions: for plasma 3-hydroxybutyrate / plasma glucose / plasma insulin / plasma non-esterified fatty acids / plasma total cholesterol / plasma triacylglycerols: female Wistar rats, 10 days
Method: Eight groups of 6 normal Wistar female rats each were used. The animals were kept under standard housing conditions and had free access to pellet food and tap water. All the rats received a daily oral gavage of 0.2 ml of sunflower oil through a stomach tube. This oil contained different amounts of oleoyl-estrone so that the rats received daily doses of 0, 0.2, 0.5, 1, 2, 5, 10 or 20 micromols per kg of body weight. After 10 days of daily gavages, the rats were killed and their blood extracted and used to obtain plasma through centrifugation. Plasma samples were used for the analysis of glucose, total cholesterol and triacylglycerols by means of a dry-strip procedure (Spotchem, Menarini, Firenze, Italy), the levels of 3-hydroxybutyrate were measured with the kit 907979 from Boehringer Mannheim (Mannheim, Germany), and non-esterified fatty acids with the kit 1383175 from the same company. Insulin levels were measured through radioimmunoassay (rat insulin kit, Amersham, Amersham, United Kingdom).

lipoprotein lipase = test: Lipoprotein lipase activity in plasma and tissues of treated lean and obese rats; format: in vivo, rat; conditions: for Lipoprotein-lipase activity, WAT mesenteric, whole tissue of the rat / Lipoprotein-lipase activity, WAT periovaric, whole tissue of the rat / Lipoprotein-lipase activity, Muscle, whole tissue of the rat: 10 μmol/kg · d; for Lipoprotein-lipase activity, WAT mesenteric, whole tissue of the rat: calculated assuming all WAT had the specific activity of mesenteric WAT; for Lipoprotein-lipase activity, WAT periovaric, whole tissue of the rat: calculated assuming all WAT had the specific activity of periovaric WAT; for Lipoprotein-lipase activity, Liver, per gram of tissue protein / Lipoprotein-lipase activity, Liver, per unit of tissue weight / Lipoprotein-lipase activity, Liver, whole organ of the rat / Lipoprotein-lipase activity, Muscle, per gram of tissue protein / Lipoprotein-lipase activity, Muscle, per unit of tissue weight / Lipoprotein-lipase activity, Plasma / Lipoprotein-lipase activity, Plasma, per gram of protein / Lipoprotein-lipase activity, WAT mesenteric, per gram of tissue protein / Lipoprotein-lipase activity, WAT mesenteric, per unit of tissue weight / Lipoprotein-lipase activity, WAT periovaric, per gram of tissue protein / Lipoprotein-lipase activity, WAT periovaric, per unit of tissue weight / Lipoprotein-lipase activity, Plasma, whole compartment of the rat: daily gavage 10 μmol/kg · d; for Lipoprotein-lipase activity, Plasma, whole compartment of the rat: plasma mass taken as 2.75% of body weight; for overall lipoprotein lipase activity in the rat (muscle + liver + plasma + WAT): rough estimate
Method: Liver, muscle and WAT (white adipose tissue) samples were homogenized in 10 mM hepes buffer pH 7.5, containing 250 mM sucrose, 1 MM-EDTA and 1 mM dithiothreitol in order to measure lipoprotein lipase activity in tissues. Homogenates were clarified by centrifugation (10 min at 10,000×g) at 4° C. The assay mixture (pH 7.5) contained 0.6 mM tri-[9,10(n)-^3H]-oleoyl-glycerol, 50 mM MgCl2, 0.5 g/L albumin (fatty acid-free), 3 ml/L preheated (60 min at 50° C.)rat serum, 25 mM PIPES buffer and 0.02 ml of sample in a final volume of 0.2 ml; the incubation was carried out for 30 min at 25° C.; after the reaction was stopped, the [^3H]-oleate evolved was quantified. All measurements of lipoprotein lipase activity in plasma and liver homogenates were carried out in the presence of anti-rat hepatic lipase antiserum. The homogenate and plasma protein content were determined with the Bradford method.
The enzyme activity was expressed in nkat/L of plasma of nkat/kg of tissue; the values were also referred to plasma or tissue protein content. The overall share of potential activity of the enzymes studied was also estimated by determining the contribution of each organ/tissue: plasma, liver and WAT (white adipose tissue) enzyme activity in relation to body mass. The results are expressed as the total activity found per kg of body weight in a given tissue or compartment. The liver was directly weighed (3.38±0.10% of BW (body weight) for lean and 3.17±0.13% of BW for the obese). The mass of plasma was taken as a 2.75% of body weight (blood being 5% of body weight, and packed cell volume 45% of that value). Overall WAT lipoprotein lipase activity in both groups of animals was calculated using the mean values for either the periovaric or mesenteric locations of both sets of data and the proportions of WAT published for lean [15% of BW] control and oleoyl-estrone-treated [7% of BW] and obese Zucker fa/fa rat [35% BW] control and oleoyl-estrone-treated [28% BW]. Muscle mass was calculated also as a proportion of body weight: 43% for lean and 33 for obese rats.
Statistical analysis of the differences between groups was established using ANOVA programs and the Student's t test.

[1] = Wistar female rats, doses 0.2-20 micromols per kg, ANOVA P<0.05

CCCCCCCC/C=C\CCCCCCCC(=O)Oc1ccc2c(c1)CC[C@@H]1[C@@H]2CC[C@]2(C)C(=O)CC[C@@H]12 [oleoyl-estrone]
doses giving lower insulin values than controls (Wistar female rats; Wistar female rats, 10 days oral gavage): ≥ 1 micromol/kg and day | change in circulating levels of 3-hydroxybutyrate (Wistar female rats; [1]): no globally significant changes | change in circulating levels of glucose (Wistar female rats; [1]): no globally significant changes | change in circulating levels of non-esterified fatty acids (Wistar female rats; [1]): no globally significant changes | change in circulating levels of triacylglycerols (Wistar female rats; [1]): no globally significant changes | drop in insulin levels (Wistar female rats; Wistar female rats, vs controls): significant | plasma 3-hydroxybutyrate (Wistar female rats; daily gavage 0.2 μmol/kg · d): 291 ± 40 µM | plasma glucose (Wistar female rats; daily gavage 0.2 μmol/kg · d): 6.35 ± 0.47 mM | plasma insulin (Wistar female rats; daily gavage 0.2 μmol/kg · d): 0.624 nM | plasma non-esterified fatty acids (Wistar female rats; daily gavage 0.2 μmol/kg · d): 184 ± 31 µM | plasma total cholesterol (Wistar female rats; daily gavage 0.2 μmol/kg · d): 1.21 ± 0.12 mM | plasma triacylglycerols (Wistar female rats; daily gavage 0.2 μmol/kg · d): 1.57 ± 0.43 mM | plasma 3-hydroxybutyrate (Wistar female rats; daily gavage 0.5 μmol/kg · d): 189 ± 41 µM | plasma glucose (Wistar female rats; daily gavage 0.5 μmol/kg · d): 5.74 ± 0.31 mM | plasma insulin (Wistar female rats; daily gavage 0.5 μmol/kg · d): 0.497 ± 0.067 nM | plasma non-esterified fatty acids (Wistar female rats; daily gavage 0.5 μmol/kg · d): 273 ± 47 µM | plasma total cholesterol (Wistar female rats; daily gavage 0.5 μmol/kg · d): 1.02 ± 0.08 mM | plasma triacylglycerols (Wistar female rats; daily gavage 0.5 μmol/kg · d): 1.79 ± 0.23 mM | plasma 3-hydroxybutyrate (Wistar female rats; daily gavage 1 μmol/kg · d): 305 ± 56 µM | plasma glucose (Wistar female rats; daily gavage 1 μmol/kg · d): 5.71 ± 0.46 mM | plasma insulin (Wistar female rats; daily gavage 1 μmol/kg · d): 0.241 ± 0.044 nM | plasma non-esterified fatty acids (Wistar female rats; daily gavage 1 μmol/kg · d): 147 ± 30 µM | plasma total cholesterol (Wistar female rats; daily gavage 1 μmol/kg · d): 1.13 ± 0.15 mM | plasma triacylglycerols (Wistar female rats; daily gavage 1 μmol/kg · d): 1.26 ± 0.26 mM | plasma 3-hydroxybutyrate (Wistar female rats; daily gavage 2 μmol/kg · d): 263 ± 27 µM | plasma glucose (Wistar female rats; daily gavage 2 μmol/kg · d): 5.76 ± 0.20 mM | plasma insulin (Wistar female rats; daily gavage 2 μmol/kg · d): 0.280 ± 0.036 nM | plasma non-esterified fatty acids (Wistar female rats; daily gavage 2 μmol/kg · d): 281 ± 44 µM | plasma total cholesterol (Wistar female rats; daily gavage 2 μmol/kg · d): 1.01 ± 0.27 mM | plasma triacylglycerols (Wistar female rats; daily gavage 2 μmol/kg · d): 1.70 ± 0.11 mM | plasma 3-hydroxybutyrate (Wistar female rats; daily gavage 5 μmol/kg · d): 300 ± 64 µM | plasma glucose (Wistar female rats; daily gavage 5 μmol/kg · d): 5.64 ± 0.21 mM | plasma insulin (Wistar female rats; daily gavage 5 μmol/kg · d): 0.275 ± 0.053 nM | plasma non-esterified fatty acids (Wistar female rats; daily gavage 5 μmol/kg · d): 213 ± 48 µM | plasma total cholesterol (Wistar female rats; daily gavage 5 μmol/kg · d): 1.03 ± 0.13 mM | plasma triacylglycerols (Wistar female rats; daily gavage 5 μmol/kg · d): 1.91 ± 0.33 mM | plasma 3-hydroxybutyrate (Wistar female rats; daily gavage 10 μmol/kg · d): 301 ± 42 µM | plasma glucose (Wistar female rats; daily gavage 10 μmol/kg · d): 5.90 ± 0.31 mM | plasma insulin (Wistar female rats; daily gavage 10 μmol/kg · d): 0.262 ± 0.050 nM | plasma non-esterified fatty acids (Wistar female rats; daily gavage 10 μmol/kg · d): 152 ± 24 µM | plasma total cholesterol (Wistar female rats; daily gavage 10 μmol/kg · d): 0.66 ± 0.09 mM | plasma triacylglycerols (Wistar female rats; daily gavage 10 μmol/kg · d): 1.39 ± 0.14 mM | plasma 3-hydroxybutyrate (Wistar female rats; daily gavage 20 μmol/kg · d): 237 ± 47 µM | plasma glucose (Wistar female rats; daily gavage 20 μmol/kg · d): 5.62 ± 0.20 mM | plasma insulin (Wistar female rats; daily gavage 20 μmol/kg · d): 0.223 ± 0.041 nM | plasma non-esterified fatty acids (Wistar female rats; daily gavage 20 μmol/kg · d): 122 ± 39 µM | plasma total cholesterol (Wistar female rats; daily gavage 20 μmol/kg · d): 0.53 ± 0.05 mM | plasma triacylglycerols (Wistar female rats; daily gavage 20 μmol/kg · d): 0.92 ± 0.11 mM | overall loss of lipoprotein lipase because of treatment (lipoprotein lipase; lean animals, vs control): 37% | effect on lipoprotein lipase activity in plasma (lipoprotein lipase; lean rats, vs controls): generalized rise | effect on lipoprotein lipase activity of the tissues studied (lipoprotein lipase; lean rats, vs controls): did not affect significantly | Lipoprotein-lipase activity, WAT mesenteric, whole tissue of the rat (lipoprotein lipase; lean rats): 133 ± 64 nkat/rat | Lipoprotein-lipase activity, WAT periovaric, whole tissue of the rat (lipoprotein lipase; lean rats): 33.2 ± 5.0 nkat/rat | Lipoprotein-lipase activity, Muscle, whole tissue of the rat (lipoprotein lipase; lean rats, muscle mass calculated as 43% of body weight): 8.79 ± 0.72 nkat/rat | Lipoprotein-lipase activity, Liver, per gram of tissue protein (lipoprotein lipase; lean rats): 1.74 ± 0.32 nkat/g P | Lipoprotein-lipase activity, Liver, per unit of tissue weight (lipoprotein lipase; lean rats): 204 ± 48 pkat/g | Lipoprotein-lipase activity, Liver, whole organ of the rat (lipoprotein lipase; lean rats): 1.12 ± 0.34 nkat/rat | Lipoprotein-lipase activity, Muscle, per gram of tissue protein (lipoprotein lipase; lean rats): 3.09 ± 0.57 nkat/g P | Lipoprotein-lipase activity, Muscle, per unit of tissue weight (lipoprotein lipase; lean rats): 110.3 ± 41.3 pkat/g | Lipoprotein-lipase activity, Plasma (lipoprotein lipase; lean rats): 11.76 ± 1.75 pkat/mL | Lipoprotein-lipase activity, Plasma, per gram of protein (lipoprotein lipase; lean rats): 147.8 ± 18.9 pkat/g P | Lipoprotein-lipase activity, WAT mesenteric, per gram of tissue protein (lipoprotein lipase; lean rats): 779 ± 384 nkat/g P | Lipoprotein-lipase activity, WAT mesenteric, per unit of tissue weight (lipoprotein lipase; lean rats): 10.25 ± 4.94 nkat/g | Lipoprotein-lipase activity, WAT periovaric, per gram of tissue protein (lipoprotein lipase; lean rats): 317 ± 111 nkat/g P | Lipoprotein-lipase activity, WAT periovaric, per unit of tissue weight (lipoprotein lipase; lean rats): 2.56 ± 0.39 nkat/g | Lipoprotein-lipase activity, Plasma, whole compartment of the rat (lipoprotein lipase; lean rats): 59.2 ± 11.6 pkat/rat | overall lipoprotein lipase activity in the rat (muscle + liver + plasma + WAT) (lipoprotein lipase; lean treated rats): 152 nkat | decrease in mesenteric WAT lipoprotein lipase (lipoprotein lipase; lean, vs control): 64% | decrease in periovaric WAT lipoprotein lipase (lipoprotein lipase; lean, vs control): 45% | overall loss of lipoprotein lipase because of treatment (lipoprotein lipase; obese animals, vs control): 51% | change of lipoprotein lipase activity in skeletal muscle (lipoprotein lipase; obese rats, vs control): increased fourfold | effect on lipoprotein lipase activity in WAT (lipoprotein lipase; obese rats, vs controls): decreases | effect on lipoprotein lipase activity in liver (lipoprotein lipase; obese rats, vs controls): no changes | effect on lipoprotein lipase activity in plasma (lipoprotein lipase; obese rats, vs controls): increases | Lipoprotein-lipase activity, WAT mesenteric, whole tissue of the rat (lipoprotein lipase; obese rats): 129 ± 27 nkat/rat | Lipoprotein-lipase activity, WAT periovaric, whole tissue of the rat (lipoprotein lipase; obese rats): 135 ± 19 nkat/rat | Lipoprotein-lipase activity, Muscle, whole tissue of the rat (lipoprotein lipase; obese rats, muscle mass calculated as 33% of body weight): 152 ± 18 nkat/rat | Lipoprotein-lipase activity, Liver, per gram of tissue protein (lipoprotein lipase; obese rats): 1.41 ± 0.21 nkat/g P | Lipoprotein-lipase activity, Liver, per unit of tissue weight (lipoprotein lipase; obese rats): 182 ± 27 pkat/g | Lipoprotein-lipase activity, Liver, whole organ of the rat (lipoprotein lipase; obese rats): 2.48 ± 0.26 nkat/rat | Lipoprotein-lipase activity, Muscle, per gram of tissue protein (lipoprotein lipase; obese rats): 40.8 ± 4.4 nkat/g P | Lipoprotein-lipase activity, Muscle, per unit of tissue weight (lipoprotein lipase; obese rats): 1383 ± 168 pkat/g | Lipoprotein-lipase activity, Plasma (lipoprotein lipase; obese rats): 7.19 ± 1.76 pkat/mL | Lipoprotein-lipase activity, Plasma, per gram of protein (lipoprotein lipase; obese rats): 107.1 ± 23.6 pkat/g P | Lipoprotein-lipase activity, WAT mesenteric, per gram of tissue protein (lipoprotein lipase; obese rats): 1767 ± 420 nkat/g P | Lipoprotein-lipase activity, WAT mesenteric, per unit of tissue weight (lipoprotein lipase; obese rats): 1.40 ± 0.29 nkat/g | Lipoprotein-lipase activity, WAT periovaric, per gram of tissue protein (lipoprotein lipase; obese rats): 245 ± 51 nkat/g P | Lipoprotein-lipase activity, WAT periovaric, per unit of tissue weight (lipoprotein lipase; obese rats): 1.46 ± 0.21 nkat/g | Lipoprotein-lipase activity, Plasma, whole compartment of the rat (lipoprotein lipase; obese rats): 51.4 ± 9.3 pkat/rat | overall lipoprotein lipase activity in the rat (muscle + liver + plasma + WAT) (lipoprotein lipase; obese treated rats): 338 nkat | decrease in mesenteric WAT lipoprotein lipase (lipoprotein lipase; obese, vs control): 87% | decrease in periovaric WAT lipoprotein lipase (lipoprotein lipase; obese, vs control): 56%
